The NIST ThermoML archive (doi:10.1021/je700321s)
Numbers after ± are expanded uncertainties.

Test: xn = mol fraction of the nth substance listed
Details: Liquid, Vibrating tube method

CC(C)O [propan-2-ol] + O=C=O
Details | mass density [kg/m3]
313.08 K, 10061 kPa, x2 = 0.7943 | 800.9 ± 0.8
313.08 K, 10515 kPa, x2 = 0.7943 | 804 ± 0.8
313.08 K, 11013 kPa, x2 = 0.7943 | 807.3 ± 0.8
313.08 K, 11507 kPa, x2 = 0.7943 | 810.6 ± 0.9
313.08 K, 11994 kPa, x2 = 0.7943 | 813.5 ± 0.9
313.08 K, 12199 kPa, x2 = 0.7943 | 814.6 ± 0.9
313.08 K, 12410 kPa, x2 = 0.7943 | 815.6 ± 0.9
313.08 K, 12606 kPa, x2 = 0.7943 | 816.7 ± 0.9
313.09 K, 2502 kPa, x2 = 0.139 | 781.7 ± 0.8
313.09 K, 3002 kPa, x2 = 0.139 | 782.3 ± 0.8
313.09 K, 3513 kPa, x2 = 0.139 | 782.9 ± 0.8
313.09 K, 4008 kPa, x2 = 0.139 | 783.5 ± 0.8
313.09 K, 4501 kPa, x2 = 0.139 | 784.1 ± 0.8
313.09 K, 5001 kPa, x2 = 0.139 | 784.7 ± 0.8
313.09 K, 5497 kPa, x2 = 0.139 | 785.3 ± 0.8
313.09 K, 6023 kPa, x2 = 0.139 | 785.9 ± 0.8
313.09 K, 6504 kPa, x2 = 0.139 | 786.5 ± 0.8
313.09 K, 7026 kPa, x2 = 0.139 | 787.1 ± 0.8
313.09 K, 7489 kPa, x2 = 0.139 | 787.6 ± 0.8
313.09 K, 7960 kPa, x2 = 0.9492 | 642.1 ± 2.7
313.09 K, 7998 kPa, x2 = 0.139 | 788.2 ± 0.8
313.09 K, 8001 kPa, x2 = 0.9492 | 648.3 ± 2.8
313.09 K, 8200 kPa, x2 = 0.9492 | 666.4 ± 2.7
313.09 K, 8400 kPa, x2 = 0.9492 | 677.7 ± 1.8
313.09 K, 8509 kPa, x2 = 0.139 | 788.8 ± 0.8
313.09 K, 8606 kPa, x2 = 0.9492 | 688.5 ± 1.8
313.09 K, 8803 kPa, x2 = 0.9492 | 697 ± 1
313.09 K, 8995 kPa, x2 = 0.139 | 789.3 ± 0.8
313.09 K, 9002 kPa, x2 = 0.9492 | 704 ± 1.1
313.09 K, 9201 kPa, x2 = 0.9492 | 710.9 ± 1
313.09 K, 9408 kPa, x2 = 0.9492 | 717.1 ± 1
313.09 K, 9503 kPa, x2 = 0.139 | 789.8 ± 0.8
313.09 K, 9604 kPa, x2 = 0.9492 | 722.7 ± 1
313.09 K, 9800 kPa, x2 = 0.9492 | 728.1 ± 0.9
313.09 K, 10003 kPa, x2 = 0.9492 | 733.1 ± 1
313.09 K, 10201 kPa, x2 = 0.9492 | 737.5 ± 0.9
313.09 K, 10405 kPa, x2 = 0.9492 | 741.5 ± 0.9
313.09 K, 10605 kPa, x2 = 0.9492 | 744.7 ± 0.9
313.09 K, 10803 kPa, x2 = 0.9492 | 747.4 ± 0.9
313.1 K, 3601 kPa, x2 = 0.2003 | 786.8 ± 0.8
313.1 K, 4007 kPa, x2 = 0.2003 | 787.4 ± 0.8
313.1 K, 4523 kPa, x2 = 0.2003 | 788.1 ± 0.8
313.1 K, 5069 kPa, x2 = 0.2003 | 788.7 ± 0.8
313.1 K, 5497 kPa, x2 = 0.2003 | 789.3 ± 0.8
313.1 K, 5812 kPa, x2 = 0.4248 | 801.4 ± 0.8
313.1 K, 6012 kPa, x2 = 0.4248 | 801.7 ± 0.8
313.1 K, 6027 kPa, x2 = 0.2003 | 790 ± 0.8
313.1 K, 6200 kPa, x2 = 0.4248 | 802.1 ± 0.8
313.1 K, 6395 kPa, x2 = 0.4248 | 802.6 ± 0.8
313.1 K, 6504 kPa, x2 = 0.2003 | 790.7 ± 0.8
313.1 K, 6602 kPa, x2 = 0.4248 | 803.1 ± 0.8
313.1 K, 6803 kPa, x2 = 0.4248 | 803.5 ± 0.8
313.1 K, 7010 kPa, x2 = 0.2003 | 791.3 ± 0.8
313.1 K, 7055 kPa, x2 = 0.4248 | 804.1 ± 0.8
313.1 K, 7208 kPa, x2 = 0.4248 | 804.3 ± 0.8
313.1 K, 7409 kPa, x2 = 0.4248 | 804.8 ± 0.8
313.1 K, 7494 kPa, x2 = 0.2003 | 791.9 ± 0.8
313.1 K, 7611 kPa, x2 = 0.4248 | 805.2 ± 0.8
313.1 K, 7802 kPa, x2 = 0.4248 | 805.7 ± 0.8
313.1 K, 7989 kPa, x2 = 0.2003 | 792.6 ± 0.8
313.1 K, 7998 kPa, x2 = 0.4248 | 806.1 ± 0.8
313.1 K, 8201 kPa, x2 = 0.4248 | 806.5 ± 0.8
313.1 K, 8557 kPa, x2 = 0.2003 | 793.2 ± 0.8
313.1 K, 8597 kPa, x2 = 0.4248 | 807.3 ± 0.8
313.1 K, 8797 kPa, x2 = 0.4248 | 807.6 ± 0.8
313.1 K, 9017 kPa, x2 = 0.2003 | 793.8 ± 0.8
313.1 K, 9024 kPa, x2 = 0.4248 | 808.1 ± 0.8
313.1 K, 9602 kPa, x2 = 0.4248 | 809.3 ± 0.8
313.1 K, 9636 kPa, x2 = 0.2003 | 794.6 ± 0.8
313.1 K, 10055 kPa, x2 = 0.4248 | 810.1 ± 0.8
313.12 K, 6801 kPa, x2 = 0.6086 | 802.8 ± 0.8
313.12 K, 7000 kPa, x2 = 0.6086 | 803.5 ± 0.8
313.12 K, 7203 kPa, x2 = 0.6086 | 804.4 ± 0.8
313.12 K, 7402 kPa, x2 = 0.6086 | 805.2 ± 0.8
313.12 K, 7602 kPa, x2 = 0.6086 | 806 ± 0.8
313.12 K, 7804 kPa, x2 = 0.6086 | 806.8 ± 0.8
313.12 K, 8010 kPa, x2 = 0.6086 | 807.7 ± 0.8
313.12 K, 8124 kPa, x2 = 0.9715 | 526.2 ± 2.6
313.12 K, 8197 kPa, x2 = 0.6086 | 808.3 ± 0.8
313.12 K, 8400 kPa, x2 = 0.6086 | 809.1 ± 0.8
313.12 K, 8526 kPa, x2 = 0.9715 | 627.3 ± 2.1
313.12 K, 8602 kPa, x2 = 0.6086 | 809.8 ± 0.8
313.12 K, 8812 kPa, x2 = 0.6086 | 810.5 ± 0.8
313.12 K, 9000 kPa, x2 = 0.6086 | 811.3 ± 0.8
313.12 K, 9002 kPa, x2 = 0.9715 | 662.5 ± 1.7
313.12 K, 9213 kPa, x2 = 0.6086 | 812 ± 0.8
313.12 K, 9392 kPa, x2 = 0.6086 | 812.6 ± 0.8
313.12 K, 9522 kPa, x2 = 0.9715 | 689 ± 1.4
313.12 K, 9600 kPa, x2 = 0.6086 | 813.3 ± 0.8
313.12 K, 9802 kPa, x2 = 0.6086 | 814 ± 0.8
313.12 K, 10001 kPa, x2 = 0.6086 | 814.6 ± 0.8
313.12 K, 10021 kPa, x2 = 0.9715 | 708.1 ± 1.2
313.12 K, 10520 kPa, x2 = 0.9715 | 722.7 ± 1
313.12 K, 10993 kPa, x2 = 0.9715 | 734.9 ± 1
313.12 K, 11514 kPa, x2 = 0.9715 | 746.8 ± 0.9
313.12 K, 12038 kPa, x2 = 0.9715 | 757.3 ± 0.9
313.12 K, 12512 kPa, x2 = 0.9715 | 765.8 ± 0.9
313.12 K, 13003 kPa, x2 = 0.9715 | 773.6 ± 0.9
313.12 K, 13500 kPa, x2 = 0.9715 | 781.1 ± 0.9
313.12 K, 13998 kPa, x2 = 0.9715 | 788.2 ± 0.9
313.12 K, 14495 kPa, x2 = 0.9715 | 794.8 ± 0.9
313.12 K, 15008 kPa, x2 = 0.9715 | 801.1 ± 0.9
323.03 K, 6842 kPa, x2 = 0.4248 | 786.9 ± 0.8
323.03 K, 7010 kPa, x2 = 0.4248 | 787.3 ± 0.8
323.03 K, 7302 kPa, x2 = 0.4248 | 788.1 ± 0.8
323.03 K, 7530 kPa, x2 = 0.4248 | 788.6 ± 0.8
323.03 K, 8004 kPa, x2 = 0.4248 | 789.7 ± 0.8
323.03 K, 8302 kPa, x2 = 0.4248 | 790.4 ± 0.8
323.03 K, 8401 kPa, x2 = 0.4248 | 790.6 ± 0.8
323.03 K, 8500 kPa, x2 = 0.4248 | 790.8 ± 0.8
323.03 K, 8603 kPa, x2 = 0.4248 | 791.2 ± 0.8
323.03 K, 8710 kPa, x2 = 0.4248 | 791.4 ± 0.8
323.03 K, 8821 kPa, x2 = 0.4248 | 791.7 ± 0.8
323.03 K, 9000 kPa, x2 = 0.4248 | 792.1 ± 0.8
323.03 K, 9209 kPa, x2 = 0.4248 | 792.5 ± 0.8
323.03 K, 9309 kPa, x2 = 0.4248 | 792.8 ± 0.8
323.03 K, 9401 kPa, x2 = 0.4248 | 793.1 ± 0.8
323.03 K, 9502 kPa, x2 = 0.4248 | 793.3 ± 0.8
323.03 K, 9601 kPa, x2 = 0.4248 | 793.4 ± 0.8
323.03 K, 9728 kPa, x2 = 0.4248 | 793.7 ± 0.8
323.05 K, 2995 kPa, x2 = 0.139 | 771.3 ± 0.8
323.05 K, 3503 kPa, x2 = 0.139 | 771.9 ± 0.8
323.05 K, 4003 kPa, x2 = 0.139 | 772.6 ± 0.8
323.05 K, 4494 kPa, x2 = 0.139 | 773.2 ± 0.8
323.05 K, 5074 kPa, x2 = 0.139 | 773.9 ± 0.8
323.05 K, 5511 kPa, x2 = 0.139 | 774.5 ± 0.8
323.05 K, 6033 kPa, x2 = 0.139 | 775.2 ± 0.8
323.05 K, 7021 kPa, x2 = 0.139 | 776.4 ± 0.8
323.05 K, 7506 kPa, x2 = 0.6086 | 779.7 ± 2
323.05 K, 7514 kPa, x2 = 0.139 | 777.1 ± 0.8
323.05 K, 7703 kPa, x2 = 0.6086 | 780.7 ± 1.1
323.05 K, 7803 kPa, x2 = 0.6086 | 781.1 ± 1.5
